From patent US7790904B2, “Substituted benzimidazole derivatives” (Hoffmann-La Roche Inc., priority 2007, dated 2010)

Key:
[1] = target: T1, FXR ligand binding domain (GST-FXR LBD fusion protein) (Homo sapiens, UniProt Q96RI1); experiment: Radioligand binding assay (SPA, radioligand displacement); conditions: 40 nM GST-FXR LBD on glutathione yttrium silicate SPA beads; radioligand e.g. 20 nM 2,N-dicyclohexyl-2-[2-(2,4 dimethoxy-phenyl)-benzoimidazol-1-yl]-acetamide
T1 construct: made in house; host or cells: E. coli BL21 (pLysS)
T1 sequence (Q96RI1 193-472 isoform Q96RI1-2 limits assumed): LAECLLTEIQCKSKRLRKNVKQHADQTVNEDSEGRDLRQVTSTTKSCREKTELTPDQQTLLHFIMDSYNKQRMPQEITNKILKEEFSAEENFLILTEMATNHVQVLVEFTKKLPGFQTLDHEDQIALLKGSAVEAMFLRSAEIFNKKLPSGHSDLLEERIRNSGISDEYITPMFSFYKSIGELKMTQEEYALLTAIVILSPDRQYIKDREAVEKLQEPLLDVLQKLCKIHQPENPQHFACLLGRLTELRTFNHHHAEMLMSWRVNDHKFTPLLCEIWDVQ
Description: The following tests were carried out in order to determine the activity of the compounds of formula (I). Background information on the binding assay can be found in: Nichols J S et al. “Development of a scintillation proximity assay for peroxisome proliferator-activated receptor gamma ligand binding domain”, (1998) Anal. Biochem. 257: 112-119.
(§1) Bacterial and mammalian expression vectors were constructed to produce glutathione-s-transferase (GST) and Gal4 DNA binding domain (GAL) proteins fused to the ligand binding domain (LBD) of human FXR (aa 193-473). To accomplish this, the portions of the sequences encoding the FXR LBD were amplified by polymerase chain reaction (PCR) from a full-length clone by PCR and then subcloned into the plasmid vectors. The final clone was verified by DNA sequence analysis.
The induction, expression, and subsequent purification of GST-LBD fusion protein was performed in E. coli strain BL21 (pLysS) cells by standard methods (Current Protocols in Molecular Biology, Wiley Press, ed. Ausubel et al.).
Radioligand Binding Assay
Binding of test substances to the FXR ligand binding domain was assessed in a radioligand displacement assay. The assay was performed in a buffer consisting of 50 mM Hepes, pH 7.4, 10 mM NaCl, 5 mM MgCl2, 0.01% CHAPS. For each reaction well in a 96-well plate, 40 nM of GST-FXR LBD fusion protein was bound to 10 μg glutathione ytrium silicate SPA beads (PharmaciaAmersham) in a final volume of 50 μl by shaking. A radioligand (e.g. 20 nM of 2,N-dicyclohexyl-2-[2-(2,4 dimethoxy-phenyl)-benzoimidazol-1-yl]-acetamide) and test compounds were added, and scintillation proximity counting was performed. All binding assays were performed in 96-well plates and the amount of bound ligand was measured on a Packard TopCount using OptiPlates (Packard). Dose response curves were performed within a range of test compound concentrations from 6×10^−9 M to 2.5×10^−5 M and IC50s were calculated.

[2] = target: T2, ligand binding domain (LBD) of human FXR (aa 193-473) (Homo sapiens, UniProt Q96RI1); experiment: Luciferase transcriptional reporter gene assay (transactivation); format: cell-based; conditions: BHK21 cells transfected with pFA-FXR-LBD plus reporter plasmid; 24 hours incubation; luciferase luminescence
T2 sequence (Q96RI1 1-486): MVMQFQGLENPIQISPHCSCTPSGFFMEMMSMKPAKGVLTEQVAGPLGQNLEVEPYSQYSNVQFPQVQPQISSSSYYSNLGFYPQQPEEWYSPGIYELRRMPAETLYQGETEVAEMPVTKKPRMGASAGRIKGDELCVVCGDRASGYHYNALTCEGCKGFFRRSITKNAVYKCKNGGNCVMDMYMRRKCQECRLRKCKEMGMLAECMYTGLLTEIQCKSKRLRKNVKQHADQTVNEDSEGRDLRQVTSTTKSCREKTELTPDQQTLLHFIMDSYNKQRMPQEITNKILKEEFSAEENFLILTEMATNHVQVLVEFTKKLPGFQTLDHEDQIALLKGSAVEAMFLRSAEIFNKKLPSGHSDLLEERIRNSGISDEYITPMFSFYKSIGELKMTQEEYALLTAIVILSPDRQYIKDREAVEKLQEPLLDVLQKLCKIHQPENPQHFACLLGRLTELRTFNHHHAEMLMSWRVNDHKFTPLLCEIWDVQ
Source text: as §1
Luciferase Transcriptional Reporter Gene Assays
Baby hamster kidney cells (BHK21 ATCC CCL 10) were grown in DMEM medium containing 10% FBS at 37° C. in a 95% […]/5% CO2 atmosphere. Cells were seeded in 6-well plates at a density of 10^5 cells/well and then transfected with the pFA-FXR-LBD or expression plasmid plus a reporter plasmid. […] Six hours following transfection, the cells were harvested by trypsinization and seeded in 96-well plates at a density of […]. After 24 hours to allow attachment of cells, the medium was removed and replaced with 100 μl of phenol red-free medium containing the test substances or control ligands (final DMSO concentration: 0.4%). Following incubation of the cells for 24 hours with substances, 50 μl of the supernatant was discarded and then 50 μl of Luciferase Constant-Light Reagent (Roche Molecular Biochemicals) was added to lyse the cells and initiate the luciferase reaction. Luminescence, as a measure of luciferase activity, was detected in a Packard TopCount. Transcriptional activation in the presence of a test substance was expressed as fold-change in luminescence compared to that of cells incubated in the absence of the substance. EC50 values were calculated using the XLfit program (ID Business Solutions Ltd. UK).

Structure (SMILES): Cc1cc(Cl)ccc1O[C@H](C)c1nc2ccc(F)cc2n1[C@H](C(=O)NC1CCCCC1)C1CCCCC1 [Example 31, (S)-2-{2-[(R)-1-(4-Chloro-2-methyl-phenoxy)-ethyl]-6-fluoro-benzoimidazol-1-yl}-2,N-dicyclohexyl-acetamide]
- IC50 [1]: 118 nM
- EC50 [2]: 254 nM

Structure (SMILES): O=C(NC1CCCCC1)C(C1CCCCC1)n1c(COc2ccccn2)nc2cc(F)ccc21 (stereo not drawn) [Example 56, 2,N-Dicyclohexyl-2-[5-fluoro-2-(pyridin-2-yloxymethyl)-benzoimidazol-1-yl]-acetamide]
- IC50 [1]: 105 nM
- EC50 [2]: 982 nM

Structure (SMILES): Cc1cccc(OCc2nc3cc(F)ccc3n2C(C(=O)NC2CCCCC2)C2CCCCC2)c1C (stereo not drawn) [Example 49, 2,N-Dicyclohexyl-2-[2-(2,3-dimethyl-phenoxymethyl)-5-fluoro-benzoimidazol-1-yl]-acetamide]
- IC50 [1]: 38 nM
- EC50 [2]: 95 nM
